The test has as its system α7 integrin promoter. Put plainly: muscle cell-based assay: α7βgal+/− myoblasts/myotubes, LacZ reporter, β-galactosidase cleavage of FDG. More on the design: species or system mouse. Conditions: for EC50: Mus musculus, read-out: EC50; for Results in a α7+/− β-galactosidase assay, Myotubes, 0.5 uM: compound at 0.5 uM; for Results in a α7+/− β-galactosidase assay, Myotubes, 1 uM: compound at 1 uM; for Results in a α7+/− β-galactosidase assay, Myotubes, 5 uM: compound at 5 uM; for Results in a α7+/− β-galactosidase assay, Myotubes, 10 uM: compound at 10 uM; for Results in a α7+/− β-galactosidase assay, Myotubes, 20 uM: compound at 20 uM; for Results in a α7+/− β-galactosidase assay, Myotubes, 40 uM: compound at 40 uM. The method in brief:
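Fluorescein generated from FDG by β-galactosidase reports α7 integrin promoter activity in differentiated myoblasts from α7+/− LacZ knock-in pups. Screening hits then went to dose-response, western blotting and a myostatin counterscreen.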

The mark [1] stands for this setting: enhancement of α7 integrin expression in muscle cells.

This note sets out measurements from US10028992B2, “Methods of treating muscular dystrophy” (BOARD OF REGENTS OF THE NEVADA SYSTEM OF HIGHER EDUCATION …, priority 2012, dated 2018).

What is called EC50 is the concentration that produces a half-maximal response.

The structures appear in SMILES notation. Where two headings read alike, the source gives them in different places.

Turning to `CCC(=O)c1ccccc1OCCCN1CCCCC1.Cl` [Compound ID# 1003, 1 {2-[3-(1-piperidinyl)propoxy}phenyl}-1-propanone hydrochloride], under setting [1], the EC50 is 5 µM and the “Optimal Concentration” value was 25 μm. Besides, under “screen of DIVERSet library”, the “α7 integrin expression in muscle” value is “increased”.
As to `CC(=O)N(O)CCCCCNC(=O)CCC(=O)N(O)CCCCCNC(=O)CCC(=O)N(O)CCCCCN` [Deferoxamine, deferoxamine, reference compound], the concentration for a half-maximal effect (EC50) by setting is: (Myotube, α7βgal+/− myotubes, dose-response) 10 µM; under setting [1], 10 µM. Further, under setting [1], the “Optimal Concentration” value is reported as 20 μm.
With `O=C(CNC(=O)c1cccc(F)c1)N/N=C/c1cc(Br)ccc1OCc1ccccc1` [drawing 311], the “Results in a α7+/− β-galactosidase assay, Myotubes, 0.5 uM” value (from here on “Results … 0.5 uM”) is on record as −0.0152; the “Results in a α7+/− β-galactosidase assay, Myotubes, 1 uM” value (“Results … 1 uM” below) was found to be 0.1201; the “Results in a α7+/− β-galactosidase assay, Myotubes, 5 uM” value (“Results … Myotubes, 5 uM” for short) is given as 0.07121; the “Results in a α7+/− β-galactosidase assay, Myotubes, 10 uM” value (from here on “Results … 10 uM”) is reported as 0.000591. The “Results in a α7+/− β-galactosidase assay, Myotubes, 20 uM” value (shortened to “Results … 20 uM”) was −0.3123 and the “Results in a α7+/− β-galactosidase assay, Myotubes, 40 uM” value (“Results … 40 uM” below) is on record as −0.2936.
For `Cc1ccccc1-n1c(S)nnc1Cc1cccs1` [drawing 312], the “Results … 0.5 uM” value amounted to 0.05774; the “Results … 1 uM” value is reported as 0.1436; the “Results … Myotubes, 5 uM” value is reported as −0.03653; the “Results … 10 uM” value is 0.08958. Besides, the “Results … 20 uM” value is recorded as −0.1182 and the “Results … 40 uM” value is −0.01563.
Regarding `CCCCN(CC)Cc1ccc(C/N=C(\S)Nc2ccccc2F)o1` [drawing 313], the “Results … 0.5 uM” value was found to be 0.05863; the “Results … 1 uM” value is recorded as 0.01354; the “Results … Myotubes, 5 uM” value is −0.01977; the “Results … 10 uM” value was found to be 0.01526. Also, the “Results … 20 uM” value is recorded as −0.2661 and the “Results … 40 uM” value is −0.1331.
With `COc1ccc2c(c1)C(=C(C#N)C#N)C(=O)N2CCc1ccccc1` [drawing 314], the “Results … 0.5 uM” value is on record as 0.006429; the “Results … 1 uM” value is 0.1052; the “Results … Myotubes, 5 uM” value is recorded as 0.04228; the “Results … 10 uM” value was −0.09235. The “Results … 20 uM” value was −0.8051 and the “Results … 40 uM” value was −0.734.
With `Cn1cc(CN(CCO)Cc2cccs2)c(-c2ccccc2F)n1` [drawing 315], the “Results … 0.5 uM” value was found to be 0.06985; the “Results … 1 uM” value was determined as 0.09322; the “Results … Myotubes, 5 uM” value is recorded as 0.1949; the “Results … 10 uM” value amounted to 0.1433. In addition, the “Results … 20 uM” value was −0.3105 and the “Results … 40 uM” value is on record as −0.2586.
In the case of `CCN1C(=O)/C(=C(/C#N)c2nc3ccccc3[nH]2)c2ccccc21` [drawing 316], the “Results … 0.5 uM” value is given as −0.1345; the “Results … 1 uM” value was −0.06381; the “Results … Myotubes, 5 uM” value amounted to 0.001992; the “Results … 10 uM” value was determined as 0.06976. Moreover, the “Results … 20 uM” value is recorded as −0.2893 and the “Results … 40 uM” value is listed as −0.2363.
Consider `Cc1ccc2c(c1)/C(=C/c1ccc(F)cc1)C(=O)N2` [drawing 317], for which the “Results … 0.5 uM” value is listed as 0.09119; the “Results … 1 uM” value amounted to 0.07633; the “Results … Myotubes, 5 uM” value stood at 0.0903; the “Results … 10 uM” value is recorded as −0.07782. In addition, the “Results … 20 uM” value was −0.4653 and the “Results … 40 uM” value was −0.4823.
For the compound `O=C1Nc2ccccc2/C1=C\c1ccnc2ccccc12` [drawing 318], the “Results … 0.5 uM” value came to 0.1725; the “Results … 1 uM” value was 0.09552; the “Results … Myotubes, 5 uM” value is 0.4005; the “Results … 10 uM” value is 0.4118. For the same compound, the “Results … 20 uM” value is listed as −0.4266 and the “Results … 40 uM” value is given as −0.342.
On to `CCc1c(C)sc(NC(=O)c2ccco2)c1C#N` [drawing 319], for which the “Results … 0.5 uM” value is −0.09933; the “Results … 1 uM” value was −0.00083; the “Results … Myotubes, 5 uM” value was found to be 0.02008; the “Results … 10 uM” value was 0.1359. The “Results … 20 uM” value is on record as −0.1945 and the “Results … 40 uM” value was −0.05014.
As for `CCc1c(C)sc(NC(=O)c2ccco2)c1C#N` [drawing 320], the “Results … 0.5 uM” value was 0.1503; the “Results … 1 uM” value is given as 0.1892; the “Results … Myotubes, 5 uM” value was found to be 0.6497; the “Results … 10 uM” value is −0.03138. The “Results … 20 uM” value is recorded as −0.1002 and the “Results … 40 uM” value is −0.1982.
On to `O=C1Nc2ccccc2/C1=C/c1ccccc1Cl` [drawing 321], for which the “Results … 0.5 uM” value turned out to be 0.1248; the “Results … 1 uM” value came to 0.1803; the “Results … Myotubes, 5 uM” value was −0.0494; the “Results … 10 uM” value is on record as −0.1957. Besides, the “Results … 20 uM” value is −0.4748 and the “Results … 40 uM” value is on record as −0.6409.
As to `COc1cccc(CN2CCN(Cc3ccco3)CC2)c1.O=C(O)C(=O)O` [drawing 322], the “Results … 0.5 uM” value was 0.1434; the “Results … 1 uM” value came out at 0.2622; the “Results … Myotubes, 5 uM” value is listed as 0.003264; the “Results … 10 uM” value is reported as −0.05758. Also, the “Results … 20 uM” value is −0.1598 and the “Results … 40 uM” value is listed as −0.2345.
Consider `CC(C)Oc1ccc(C(=O)/C=C2\C(=O)Nc3ccccc32)cc1` [drawing 323], for which the “Results … 0.5 uM” value came out at 0.1381; the “Results … 1 uM” value stood at 0.1721; the “Results … Myotubes, 5 uM” value is −0.09555; the “Results … 10 uM” value is given as −0.3062. Further, the “Results … 20 uM” value is given as −0.7604 and the “Results … 40 uM” value is given as −0.9215.
For `COc1ccc(NC(=O)C2(N(C(=O)Cn3nnnc3N)c3ccc(OC)cc3)CCCCC2)cc1` [drawing 324], the “Results … 0.5 uM” value was 0.05381; the “Results … 1 uM” value was 0.1378; the “Results … Myotubes, 5 uM” value amounted to 0.2107; the “Results … 10 uM” value was −0.07457. For the same compound, the “Results … 20 uM” value is given as −0.3633 and the “Results … 40 uM” value is on record as −0.2285.
